The compounds below were run on Escherichia coli (ATCC25922) or Staphylococcus aureus (ATCC25923) (assay: Antibacterial MIC, microdilution method in Mueller-Hinton medium). Conditions: Escherichia coli, 18 h, MIC in E. coli or S. aureus; two-fold serial dilutions 64 to 0.5 μg/ml in duplicate; 18 hours of incubation at 35° C.; read-out: Potency (MIC).
Type: cell-based
Procedure, shortened: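 Read after 18 h incubation at 35° C, MIC is the lowest compound level that blocked growth. Compounds were tested in duplicate over 64–0.5 μg/ml two-fold dilutions using Mueller-Hinton microdilution per NCCLS standard.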

MIC	Compound
> 64 µg/mL	N[C@@H]1CC(c2nc(NC3CCNCC3)nc(N3C[C@H](N)C[C@H](N)C3)n2)C[C@H](N)C1 (stereo partly drawn) [N-piperidin-4-yl-4,6-Biss-((3R,5S)-3,5-diamino-piperidin-1-yl)-[1,3,5]triazine-2-amine]
< 16 µg/mL	Cl.N[C@@H]1C[C@H](N)CN(c2nc(Nc3ccc(O)c4ccccc34)nc(N3C[C@H](N)C[C@H](N)C3)n2)C1 [N-(4-hydroxy-naphthalen-1-yl)-4,6-Bis-((3R,5S)-3,5-diamino-piperidin-1-yl)-[1,3,5]triazine-2-amine]
< 64 µg/mL	Cl.N[C@@H]1C[C@H](N)CN(c2nc(Nc3cccc(Br)c3)nc(N3C[C@H](N)C[C@H](N)C3)n2)C1 [N-(3-bromo-phenyl)-4,6-Bis-((3R,5S)-3,5-diamino-piperidin-1-yl)-[1,3,5]triazine-2-amine]
< 16 µg/mL	Cl.O=[N+]([O-])c1ccc(S(=O)(=O)c2ccc(Nc3nc(N4CCCCC4)nc(N4CCCCC4)n3)cc2)cc1 [N-[4-((2,4-dimethoxy-benzoylamino)-3-hydroxy-phenyl]-4,6-Bis-((3R,5S)-3,5-diamino-piperidin-1-yl)-[1,3,5]triazine-2-amine]
< 64 µg/mL	Cl.NC1CCN(c2nc(Nc3ccc(Cl)c(Cl)c3)nc(N3C[C@H](N)C[C@H](N)C3)n2)CC1 [(3R,5S)-1-[4-(4-Amino-piperidin-1-yl)-6-(3,4-dichloro-phenylamino)-[1,3,5]triazin-2-yl]-piperidine-3,5-diamine]
< 64 µg/mL	CC(C)(C)C(=O)Nc1ccc(Nc2nc(N3CCCCC3)nc(N3CCCCC3)n2)cc1O.Cl [N-[4-(2,2-dimethyl-propionylammino)-3-hydroxy-phenyl]-4,6-Bis-((3R,5S)-3,5-diamino-piperidin-1-yl)-[1,3,5]triazine-2-amine]
< 16 µg/mL	Cl.O=C(Nc1ccc(Cl)cc1Cl)c1ccc(Nc2nc(N3CCCCC3)nc(N3CCCCC3)n2)cc1O [N-[4-(2,4-dichloro-phenylcarbamoyl)-3-hydroxy-phhenyl]-4,6-Bis-((3R,5S)-3,5-diamino-piperidin-1-yl)-[1,3,5]triazine-2-amine]

Same assay, conditions: Escherichia coli, 18 h, read-out: Potency (MIC)

Compound	MIC
Cc1cc(=O)oc2cc(Nc3nc(N4C[C@H](N)C[C@H](N)C4)nc(N4CC[C@H](O)[C@H](CN)C4)n3)ccc12 [7-[4-((3R,4S)-3-Aminomethyl-4-hydroxy-piperidin-1-yl)-6-((3R,5S)-3,5-diamino-piperidin-1-yl)-[1,3,5]triazin-2-ylamino]-4-methyl-chromen-2-one]	> 64 µg/mL
N[C@@H]1C[C@H](N)CN(c2nc(Nc3ccc(S(=O)(=O)Nc4ccc5cn[nH]c5c4)cc3)nc(N3C[C@H](O)C[C@@H](O)C3)n2)C1 [4-[4-((3S,5R)-3,5-Diamino-piperidin-1-yl)-6-((3R,5R)-3,5-dihydroxy-piperidin-1-yl)-[1,3,5]triazin-2-ylamino]-N-(1H-indazol-6-yl)-benzenesulfonamide]	> 64 µg/mL
N[C@@H]1C[C@H](N)CN(c2nc(Nc3ccc(NC(=O)c4ccccc4)c(O)c3)nc(N3C[C@H](N)C[C@H](N)C3)n2)C1 [N-(4-benzoylamino-3-hydroxy-phenyl)-4,6-Bis-((3R,5S)-3,5-diamino-piperidin-1-yl)-[1,3,5]triazine-2-amine]	< 16 µg/mL
CN(C)c1cccc(Nc2nc(N3C[C@H](N)C[C@H](N)C3)nc(N3C[C@H](N)C[C@H](N)C3)n2)c1 [N-(3-dimethylamino-phenyl)-4,6-Bis-((3R,5S)-3,5-diamino-piperidin-1-yl)-[1,3,5]triazine-2-amine]	> 64 µg/mL
NCCN(CCN)c1nc(Nc2ccc(NC(=O)c3ccc(Cl)cc3)c(O)c2)nc(N2C[C@H](N)C[C@H](N)C2)n1 [N-{4-[4-[Bis-(2-amino-ethyl)-amino]-6-((3R,5S)-3,5-diamino-piperidin-1-yl)-[1,3,5]triazin-2-ylamino]-2-hydroxy-phenyl}-4-chloro-benzamide]	< 64 µg/mL
Cc1cc(=O)oc2cc(NC(=O)c3ccc(Nc4nc(N5C[C@H](N)C[C@H](N)C5)nc(N5C[C@H](N)C[C@H](N)C5)n4)cc3O)ccc12 [N-[3-hydroxy-4-(4-methyl-2-oxo-2H-chromen-7-ylcarbamoyl)-phenyl]-4,6-Bis-((3R,5S)-3,5-diamino-piperidin-1-yl)-[1,3,5]triazine-2-amine]	< 16 µg/mL
CC(=O)c1ccc(Nc2nc(N3C[C@H](N)C[C@H](N)C3)nc(N3C[C@H](N)C[C@H](N)C3)n2)cc1 [N-(4-acetyl-phenyl)-4,6-Bis-((3R,5S)-3,5-diamino-piperidin-1-yl)-[1,3,5]triazine-2-amine]	< 64 µg/mL
NC(=O)c1ccc(NC(=O)c2ccc(Nc3nc(N4C[C@H](N)C[C@H](N)C4)nc(N4C[C@H](N)C[C@H](N)C4)n3)cc2O)cc1 [N-[4-(4-carbamoyl-phenylcarbamoyl)-3-hydroxy-phenyl]-4,6-Bis-((3R,5S)-3,5-diamino-piperidin-1-yl)-[1,3,5]triazine-2-amine]	> 64 µg/mL
CC(C)CCCCCC(=O)Nc1ccc(S(=O)(=O)Nc2ccc(Nc3nc(N4C[C@H](N)C[C@H](N)C4)nc(N4C[C@H](N)C[C@H](N)C4)n3)cc2O)cc1 [N-{3-hydroxy-4-[4-(7-methyl-octanoylamino)-benzenesulfonylamino]-phenyl}-4,6-Bis-((3R,5S)-3,5-diamino-piperidin-1-yl)-[1,3,5]triazine-2-amine]	< 16 µg/mL
Cc1ccc(C(=O)Nc2ccc(Nc3nc(N4C[C@H](N)C[C@H](N)C4)nc(N4CC[C@H](O)[C@@H]4CN)n3)cc2O)cc1 [N-{4-[4-((2S,3S)-2-Aminomethyl-3-hydroxy-pyrrolidin-1-yl)-6-((3R,5S)-3,5-diamino-piperidin-1-yl)-[1,3,5]triazin-2-ylamino]-2-hydroxy-phenyl}-4-methyl-benzamide]	< 16 µg/mL
CC(=O)Nc1ccc(Nc2nc(N3C[C@H](N)C[C@H](N)C3)nc(N3C[C@H](N)C[C@H](N)C3)n2)cc1 [drawing 485, N-(4-acetylamino-phenyl)-4,6-Bis-((3R,5S)-3,5-diamino-piperidin-1-yl)-[1,3,5]triazine-2-amine]	< 64 µg/mL
N[C@@H]1C[C@H](N)CN(c2nc(Nc3ccc(C(=O)Nc4cccc(C(F)(F)F)c4)c(O)c3)nc(N3C[C@H](N)C[C@H](N)C3)n2)C1 [N-[3-hydroxy-4-(3-trifluoromethyl-phenylcarbamoyl)-phenyl]-4,6-Bis-((3R,5S)-3,5-diamino-piperidin-1-yl)-[1,3,5]triazine-2-amine]	< 16 µg/mL
NC[C@@H]1C[C@H](N)CN1c1nc(Nc2ccc(NC(=O)c3ccc(O)cc3O)c(O)c2)nc(N2C[C@H](N)C[C@H](N)C2)n1 [N-{4-[4-((2S,4S)-4-Amino-2-aminomethyl-pyrrolidin-1-yl)-6-((3R,5S)-3,5-diamino-piperidin-1-yl)-[1,3,5]triazin-2-ylamino]-2-hydroxy-phenyl}-2,4-dihydroxy-benzamide]	< 16 µg/mL
N[C@@H]1C[C@H](N)CN(c2ncnc(Nc3ccc(NC(=O)c4ccc5ccccc5c4O)cc3)n2)C1 [1-Hydroxy-naphthalene-2-carboxylicacid {4-[4-((3S,5R)-3,5-diamino-piperidin-1-yl)-[1,3,5]triazin-2-ylamino]-phenyl}-amide]	< 16 µg/mL
N[C@@H]1C[C@H](N)CN(c2nc(Nc3ccc(NC(=O)CCCC[C@@H]4SC[C@H]5NC(=O)N[C@@H]45)c(O)c3)nc(N3C[C@H](N)C[C@H](N)C3)n2)C1 [5-((3aR,4S,6aS)-2-Oxo-hexahydro-thieno[3,4-d]imidazol-4-yl)-pentanoicacid {4-[4-((3R,5S)-3,5-diamino-piperidin-1-yl)-6-((3S,5R)-3,5-diamino-piperidin-1-yl)-[1,3,5]triazin-2-ylamino]-2-hydroxy-phenyl}-amide]	> 64 µg/mL
Cc1ccc(C(=O)Nc2ccc(Nc3nc(N4C[C@H](N)C[C@H](N)C4)nc(N4C[C@H](N)C[C@H](N)C4)n3)cc2O)c(O)n1 [N-{3-hydroxy-4-[(2-hydroxy-6-methyl-pyridine-3-carbonyl)-amino]-phenyl}-4,6-Bis-((3R,5S)-3,5-diamino-piperidin-1-yl)-[1,3,5]triazine-2-amine]	< 64 µg/mL
CC(=O)c1ccc(Nc2nc(N(CCN)CCN)nc(N3C[C@H](N)C[C@H](N)C3)n2)cc1 [1-{4-[4-[Bis-(2-amino-ethyl)-amino]-6-((3R,5S)-3,5-diamino-piperidin-1-yl)-[1,3,5]triazin-2-ylamino]-phenyl}-ethanone]	< 64 µg/mL
N[C@@H]1C[C@H](N)CN(c2nc(Nc3ccc(NC(=O)c4ccc(Cl)cc4)c(O)c3)nc(N3C[C@H](O)C[C@@H](O)C3)n2)C1 [4-Chloro-N-{4-[4-((3S,5R)-3,5-diamino-piperidin-1-yl)-6-((3R,5R)-3,5-dihydroxy-piperidin-1-yl)-[1,3,5]triazin-2-ylamino]-2-hydroxy-phenyl}-benzamide]	< 64 µg/mL
NC[C@@H]1C[C@H](N)CN1c1nc(Nc2ccc(S(=O)(=O)Nc3ccc4cn[nH]c4c3)cc2)nc(N2C[C@H](N)C[C@H](N)C2)n1 [4-[4-((2S,4S)-4-Amino-2-aminomethyl-pyrrolidin-1-yl)-6-((3R,5S)-3,5-diamino-piperidin-1-yl)-[1,3,5]triazin-2-ylamino]-N-(1H-indazol-6-yl)-benzenesulfonamide]	> 64 µg/mL
N[C@@H]1C[C@H](N)CN(c2nc(Nc3ccc(-n4c5ccccc5c5ccccc54)cc3)nc(N3C[C@H](N)C[C@H](N)C3)n2)C1 [N-(4-carbazol-9-yl-phenyl)-4,6-Bis-((3R,5S)-3,5-diamino-piperidin-1-yl)-[1,3,5]triazine-2-amine]	< 16 µg/mL
Cc1cc(Nc2nc(N3C[C@H](N)C[C@H](N)C3)nc(N3C[C@H](N)C[C@H](N)C3)n2)ccc1NC(=O)c1cccc([N+](=O)[O-])c1O [N-[4-(2-hydroxy-3-nitro-benzoylamino)-3-methyl-phenyl]-4,6-Bis-((3R,5S)-3,5-diamino-piperidin-1-yl)-[1,3,5]triazine-2-amine]	< 64 µg/mL
Cc1cc(C)cc(Nc2nc(N3C[C@H](N)C[C@H](N)C3)nc(N3C[C@H](N)C[C@H](N)C3)n2)c1 [N-(3,5-dimethyl-phenyl)-4,6-Bis-((3R,5S)-3,5-diamino-piperidin-1-yl)-[1,3,5]triazine-2-amine]	< 64 µg/mL
